Measurements as given in patent US20250236616A1, “IMMUNOMODULATING AZALIDES” (Zoetis Services LLC, priority 2021, published 2025).
In brackets after ≈: the same amount, converted by molar mass.

How the values were obtained:
E. coli = test: MIC, E. coli; type: cell-based; settings: Escherichia coli
Source text: (§1) Primary screening of the compounds of the invention included the evaluation of antibacterial activity of analogs through determination of microbial inhibition concentration (MIC) as per CLSI guidelines. The screening panel included the relevant BRD pathogens: 1) M. haemolytica (e.g., 12726, 46571 and 49023, all AHDRCC; and 33396 (ATCC)); and 2) P. multocida (e.g., 34135 and 46572 (both AHDRCC) and 43137 (ATCC)). In some instances, H. somni (A700025K) pathogens were also included in the screening panel. The AHDRCC strains originated from the Zoetis BRD/SRD surveillance program and refer to the Animal Health Development and Research Culture Collection. In addition, the screen assessed S. aureus (29213 ATCC) as a representative Gram-positive isolate, E.faecalis (19433 ATCC) as a commensal gram-positive gastrointestinal bacterium and E. coli (100, 3110 and 25922 (ATCC)) for the evaluation of efflux potential. The screening panel BRD pathogens were assessed in determining antibacterial activity of the Formula (1) compounds.
(§2) All relevant BRD pathogens were initially screened at a top concentration of 64 μg/mL of a Formula (1) compound in an eleven-point dilution series. […] If an Example was purified further, the MICs moved […] essentially two dilutions across all strains tested in the screening panel.
(§3) In-Vitro MIC Model Compounds were analyzed for antibacterial activity against a panel of animal health specific gram-positive and gram-negative clinical strains by diluting compounds in DMSO to an appropriate stock concentration to determine the Minimal Inhibitory Concentration (MIC) via a semi-automated broth micro-dilution method (CLSI reference method) with QC strains and anti-microbial agent(s). Specifically, bacteria were grown overnight on TSA w/5% sheep blood agar plates and diluted in saline buffer to a McFarland Standard 0.5, then further diluted in cation-ion adjusted Mueller Hinton Broth to a final concentration of approximately 5×10^5 CFU/mL. 100 μL of inoculated media was added to 96-well plate(s) with 3 μL of serially diluted compound in each row. Depending on strain (see CLSI reference method), bacteria were incubated 18-22 hours at 35-37° C. in ambient air, with 5% CO2 or anaerobically (up to 48 hours).

P. multocida 46572 = test: In vivo mouse lung infection challenge model (murine efficacy), survival; set-up: species or system CD-1 female mice; settings: 20 mg/kg subcutaneous; for % Survival: P. multocida 46572 intranasal challenge, harmonized relative to vehicle (−) and M9 (+) controls
M. haemolytica = test: MIC, M. haemolytica strains; type: cell-based; settings: Mannheimia haemolytica
Source text: as §1, §2, §3

[1] = M. haemolytica 46571, bovine efficacy challenge strain

Row | Structure (SMILES) | MIC (E. coli; E. coli 25922) [µg/mL] | MIC (E. coli; E. coli W3110) [µg/mL] | % Survival (P. multocida 46572) [%] | MIC (M. haemolytica; M. haemolytica 12726) [µg/mL] | MIC (M. haemolytica; M. haemolytica 33396) [µg/mL] | MIC (M. haemolytica; [1]) [µg/mL] | Mouse survival (P. multocida 46572; M9 positive control)
1 | CC[C@H]1OC(=O)[C@H](C)[C@@H](O)[C@H](C)[C@@H](O[C@@H]2O[C@H](C)C[C@H](N(C)S(=O)(=O)c3ccccc3)[C@H]2Oc2ccc(OC)cc2)[C@](C)(O)C[C@@H](C)CN[C@H](C)[C@@H](O)[C@]1(C)O [Example A-9, N-((2S,3R,4S,6R)-2-(((2R,3S,4R,5R,8R,10R,11R,12S,13S,14R)-2-ethyl-3,4,10,13-tetrahydroxy-3,5,8,10, 12, 14-hexamethyl-15-oxo-1-oxa-6-azacyclopentadecan-11-yl)oxy)-3-(4-methoxyphenoxy)-6-methyltetrahydro-2H-pyran-4-yl)-N-methylbenzenesulfonamide] | > 64 | > 64 | 41 | > 64 | > 64 | > 64 | 
2 | CCCNC[C@]1(O)[C@H](C)O[C@@H](O[C@H]2[C@H](C)[C@@H](O[C@@H]3O[C@H](C)C[C@H](N(C)S(=O)(=O)c4ccc(C)cc4)[C@H]3O)[C@](C)(O)C[C@@H](C)CN[C@H](C)[C@@H](O)[C@](C)(O)[C@@H](CC)OC(=O)[C@@H]2C)C[C@@]1(C)OC [Example B-26, N-((2S,3R,4S,6R)-2-(((2R,3S,4R,5R,8R,10R,11R,12S,13S,14R)-2-ethyl-3,4,10-trihydroxy-13-(((2R,4R,5S,6S)-5-hydroxy-4-methoxy-4,6-dimethyl-5-((propylamino)methyl)tetrahydro-2H-pyran-2-yl)oxy)-3,5,8,10,12,14-hexamethyl-15-oxo-1-oxa-6-azacyclopentadecan-11-yl)oxy)-3-hydroxy-6-methyltetrahydro-2H-pyran-4-yl)-N,4-dimethylbenzenesulfonamide] | > 64 | > 64 | 37 | > 64 | > 64 | > 64 | 
3 | CCCNC[C@]1(O)[C@H](C)O[C@@H](O[C@H]2[C@H](C)[C@@H](O[C@@H]3O[C@H](C)C[C@H](N(C)S(=O)(=O)Nc4ccc(C(F)(F)F)cc4)[C@H]3O)[C@](C)(O)C[C@@H](C)CN[C@H](C)[C@@H](O)[C@](C)(O)[C@@H](CC)OC(=O)[C@@H]2C)C[C@@]1(C)OC [Example B-50, (2R,3S,4R,5R,8R,10R,11R,12S,13S, 14R)-2-ethyl-3,4,10-trihydroxy-13-[(2R,4R,5S,6S)-5-hydroxy-4-methoxy-4,6-dimethyl-5-(propylaminomethyl)oxan-2-yl]oxy-11-[(2S,3R,4S,6R)-3-hydroxy-6-methyl-4-[methyl-[[4-(trifluoromethyl)phenyl]sulfamoyl]amino]oxan-2-yl]oxy-3,5,8, 10, 12, 14-hexamethyl-15-oxo-1-oxa-6-azacyclopentadecane] | > 64 | > 64 | 88 | > 64 | > 64 | > 64 | 
4 | CC[C@H]1OC(=O)[C@H](C)[C@@H](O[C@H]2C[C@@](C)(OC)[C@](O)(CN3CCCCC3)[C@H](C)O2)[C@H](C)[C@@H](O[C@@H]2O[C@H](C)C[C@H](N(C)S(=O)(=O)c3ccc(Cl)cc3)[C@H]2O)[C@](C)(O)C[C@@H](C)CN[C@H](C)[C@@H](O)[C@]1(C)O [Example C-4, 4-chloro-N-((2S,3R,4S,6R)-2-(((2R,3S,4R,5R,8R,10R,11R,12S,13S,14R)-2-ethyl-3,4,10-trihydroxy-13-(((2R,4R,5S,6S)-5-hydroxy-4-methoxy-4,6-dimethyl-5-(piperidin-1-ylmethyl)tetrahydro-2H-pyran-2-yl)oxy)-3,5,8, 10, 12, 14-hexamethyl-15-oxo-1-oxa-6-azacyclopentadecan-11-yl)oxy)-3-hydroxy-6-methyltetrahydro-2H-pyran-4-yl)-N-methylbenzenesulfonamide] | > 128 | > 128 | 76 | > 128 | > 128 | > 128 | 
5 | CC[C@H]1OC(=O)[C@H](C)[C@@H](O[C@H]2C[C@@](C)(OC)[C@](O)(CN3CCCCC3)[C@H](C)O2)[C@H](C)[C@@H](O[C@@H]2O[C@H](C)C[C@H](N(C)S(=O)(=O)Nc3ccc(C(F)(F)F)cc3)[C@H]2O)[C@](C)(O)C[C@@H](C)CN[C@H](C)[C@@H](O)[C@]1(C)O [Example C-11, (2R,3S,4R,5R,8R,10R,11R,12S, 13S, 14R)-2-ethyl-3,4, 10-trihydroxy-13-[(2R,4R,5S,6S)-5-hydroxy-4-methoxy-4,6-dimethyl-5-(piperidin-1-ylmethyl)oxan-2-yl]oxy-11-[(2S,3R,4S,6R)-3-hydroxy-6-methyl-4-[methyl-[[4-(trifluoromethyl)phenyl]sulfamoyl]amino]oxan-2-yl]oxy-3,5,8, 10, 12, 14-hexamethyl-15-oxo-1-oxa-6-azacyclopentadecane] | > 64 | > 64 | 56 | > 64 | > 64 | > 64 | 
6 | CCCNC[C@]1(O)[C@H](C)O[C@@H](O[C@H]2[C@H](C)[C@@H](O[C@@H]3O[C@H](C)C[C@H](NC)[C@H]3O)[C@](C)(O)C[C@@H](C)CN[C@H](C)[C@@H](O)[C@](C)(O)[C@@H](CC)OC(=O)[C@@H]2C)C[C@@]1(C)OC [Example M9, (2R,3S,4R,5R,8R,10R,11R,12S,13S,14R)-2-ethyl-3,4, 10-trihydroxy-13-(((2R,4R,5S,6S)-5-hydroxy-4-methoxy-4,6-dimethyl-5-((propylamino)methyl)-tetrahydro-2H-pyran-2-yl)oxy)-11-(((2S,3R,4S,6R)-3-hydroxy-6-methyl-4-(methylamino)tetrahydro-2H-pyran-2-yl)oxy)-3,5,8,10,12,14-hexamethyl-1-oxa-6-azacyclopentadecan-15-one] | > 64 | 64 (≈ 80.8 µM) |  | 22 (≈ 27.8 µM) |  |  | 90-100%
